The nature of data set [1]: perhydrolytic degradation in the presence of sodium perborate (10 equiv.), followed by HPLC. The settings on record: sodium perborate/persalts 10 equiv. Format: physicochemical. How it is done:
(§1) To study the hydrolytic degradation, 1 and 2 were dissolved in Tris buffer (pH 8.0, 0.1 M):acetonitrile (can) mixture (3:1, v/v) at 50 μg/mL. The perhydrolytic degradation was evaluated at similar conditions in the presence of sodium perborate (10 equiv.). Commercially available bleach activator, tetraacetylethylenediamine (TAED), was used as a control. The mixture was incubated at room temperature (20° C.) for 20 days. At different time intervals, an aliquot of the solution was taken out and analyzed by HPLC. The concentration of 1 and 2 was quantified by UV-vis absorption at Δmax=218 nm through standard curve. For the bleaching test, 1, 2, TAED, and other control molecules (20 mg) were treated with commercially available food dyes (100× dilution, 1 mL) and hydrogen peroxide (H2O2, 30%, 1 mL). The mixtures were incubated at room temperature (20° C.) and checked at different time intervals to monitor the bleaching of the dyes.

Data set [2] in a line: hydrolytic degradation in buffer, followed by HPLC. The settings on record: pH 9.0. Format: physicochemical.
Data set [3] in a line: hydrolytic degradation in buffer, followed by HPLC. The settings on record: for kH (hydrolysis rate constant) / half-life at 50 μg/mL: Tris buffer pH 8.0 (0.1 M):acetonitrile 3:1, 50 μg/mL, 20° C.; for half-life at 50 μg/mL: Tris buffer:acetonitrile (3:1, v/v), read-out: t1/2,H (hydrolysis half-life) (converted); for half-life relative to half-life of TAED: pH 8.0; for hydrolytic degradation compared with TAED: pH 8.0, FIG. 1A. The format is physicochemical. The procedure:
as §1

Data set [4] can be described thus: bleaching test with food dye and hydrogen peroxide. The settings on record: FIG. 2; for time after which the blue color was bleached: food dye in Tris buffer pH 8.0 with H2O2 (30%) 1:1, 10 mg compound per mL; for bleaching activation effect: food dye (blue) with H2O2, room temperature. The procedure: as §1
The compounds of the invention were subjected to a bleaching test. The food dye was purchased from Adams Extract, and diluted 500 times with Tris buffer (pH 8.0, 0.1 M) before use. The diluted food dye was mixed with H2O2 (30%) in 1:1 ratio (v/v). For every 10 mg of TAED/TA(Me)ED/TriA(Me)ED, 1 mL of food dye/H2O2 mixture was added. The widely used bleach activator TAED actively reacted with H2O2, and the blue color disappeared after about 24 hours.

Data set [5] is described as follows: solubility in aqueous environment. The format is physicochemical. The settings on record: without organic solvent.

The structures appear in SMILES notation.

Turning to `CC(=O)N(CC(C)N(C(C)=O)C(C)=O)C(C)=O` (stereo not drawn) [Compound 1, N,N′-(propane-1,2-diyl)bis(N-acetylacetamide)], in data set [1], the “perhydrolysis rate, comparison among TAED, 1 and 2” value (from here on “perhydrolysis rate”) is recorded as “comparable”. Moreover, the “half-life relative to half-life of TAED” value in data set [2] was found to be 2.6 times longer. For the same compound, in data set [3], the “kH (hydrolysis rate constant)” value is 0.0038 h⁻¹, the half-life at 50 μg/mL is 181 h, the “half-life relative to half-life of TAED” value turned out to be 1.5 times longer and the “hydrolytic degradation compared with TAED” value is given as “slower degradation”. Besides, the “hydrolysis compared to TAED” value in data set [3] (pH values between about 5 and 9) was “slower hydrolysis”. The “time after which the blue color was bleached” value (shortened to “time”) in data set [4] was determined as 24 h.

With `CC(=O)NCC(C)NC(C)=O` (stereo not drawn) [Compound 3, N,N′-(propane-1,2-diyl)diacetamide, reference compound], the bleaching activation effect result in data set [4] is listed as “did not exhibit any bleaching activation effect”.

With `CC(=O)N(CCN(C(C)=O)C(C)=O)C(C)=O` [TAED, tetraacetylethylenediamine, reference compound], the “perhydrolysis rate” value in data set [1] is “comparable”. Also, in data set [3], the “kH (hydrolysis rate constant)” value was determined as 0.0091 h⁻¹ and the half-life at 50 μg/mL is 76 h. For the same compound, in data set [5], the solubility in water entry is listed as “cannot be easily solubilized in water”. Further, in data set [4], the “time” value is “about 24 hours”.

`CC(=O)NCCNC(C)=O` [DAED, diacetylethylenediamine, reference compound]: in data set [4], the bleaching activation effect entry is given as “did not exhibit any bleaching activation effect”.

Turning to `CC(=O)NC(C)CN(C(C)=O)C(C)=O` (stereo not drawn) [Compound 2, N-(2-acetamidopropyl)-N-acetylacetamide], the “perhydrolysis rate” value in data set [1] is “comparable”. For the same compound, the “half-life relative to half-life of TAED” value in data set [2] is 5.8 times longer. Moreover, in data set [3], the “kH (hydrolysis rate constant)” value stood at 0.0015 h⁻¹, the half-life at 50 μg/mL was 462 h, the “half-life relative to half-life of TAED” value amounted to 5.7 times longer and the “hydrolytic degradation compared with TAED” value was “slower degradation”. For the same compound, the “hydrolysis compared to TAED” value in data set [3] (basic pH) was “even slower hydrolysis”. Moreover, in data set [4], the bleaching activation effect entry is on record as “much slower bleaching action” and the “time” value is 24 h.

These data come from US11525106B2, “Tetraacetyldiamine and triacetyldiamine derivatives useful as bleach activators” (DOW GLOBAL TECHNOLOGIES LLC, priority 2018, dated 2022).
